These results are taken from US6773627B2, “Cubic liquid crystalline compositions and methods for their preparation” (Children's Hospital Research Foundation, priority 2000, dated 2004).

Entries after “also recorded” stand apart in the source; their conditions may differ.

This data set can be described thus: Determination of hydrotrope utility (polarized light microscopy and rheology of compound/water/monoolein compositions). In kind it is physicochemical. To be noted: for Formation of cubic phase in equilibrium with liquid water: system of compound, monoolein and water. An excerpt: Whether a compound is suitable to use as ingredient (A) can be determined by one skilled in the art without undue experimentation. The determination can be made by preparing a composition comprising the compound to be tested for use as the hydrotrope, the selected amphiphile, and the selected solvent and allowing the composition to equilibrate, for example, by the method described below in Reference Example 1. If the composition forms a cubic phase or cubic phase in combination with another phase, then the hydrotrope is suitable to use in this invention. If the composition forms a cubic phase or cubic phase in combination with an isotropic liquid, then the hydrotrope is preferred.
Polarized light microscopy (PLM) can be used to determine whether the composition formed cubic phase. PLM can be carried out on a polarized light microscope or constructed light box, as described by Laughlin, R. G., J. Colloid Interface Sci., 55, 239-242 (1976). Polarized light microscope textures define the phase/colloidal state of sample. Lamellar and hexagonal phases give birefringence (see Hecht, E., Optics, 2nd ed., Addison-Wesley Publishing Co., Reading, Mass., pp. 282-289 (1984)) and distinct textures such as Maltese Crosses (see Rosevear, F. B., J. Am. Oil Chemists Soc., 31, 628-638 (1954)). This is a consequence of the anisotropic phase structure of these particular phases, and their orientation relative to polarization of the light. However, L1, L2, L3, and cubic phases show no birefringence and appear dark in the microscope. Birefringence is a function of sample thickness, so sometimes it is difficult to see with a light microscope. Instead, the bulk sample can be placed in the aforementioned light box to secure a very thick sample.
Cubic phases are very viscous while the other phases are (i.e., L1, L2, and L3) are less viscous, like water. Therefore, lack of birefringence in combination with bulk solid-like rheological properties indicates the presence of cubic phase.
A compound for use as a hydrotrope is dissolved in water in amounts to form a hydrotrope solution. The solution is added to monoolein (DIMODAN® MO90K) to yield a composition. The composition is left to equilibrate overnight at a temperature of 25 to 30° C.
PLM can be carried out on a polarized light microscope or constructed light box, as described by Laughlin, R. G., J. Colloid Interface Sci., 55, 239-242 (1976). Rheological properties of the composition are also observed.
Various compounds are evaluated according to Reference Example 1. The compounds, the compositions prepared, and the results are in Table E1, below. FIG. 4 is a ternary diagram 400 showing the data points in Example 3. FIG. 5 is a ternary diagram 500 for 1,2-hexanediol 516, monoolein 517, and water 518. […] FIG. 6 is a ternary diagram 600 for 1,2-hexanediol 613, monoolein 614, and water 615. […] FIG. 7 is a ternary diagram 700 for ethanol 713, monoolein 714, and water 715.

[1] abbreviates: system with monoolein and water.
Setting [2] is: compound 10, water 80, amphiphile (monoolein) 10 (κ).

For `CCCCC(O)CO` (stereo not shown) [1,2-hexanediol], the “Formation of cubic phase in equilibrium with liquid water” value was “does not form cubic phase in equilibrium with liquid water”. Moreover, for the setting “FIG. 5 point 501, compound 10, water 81, amphiphile (monoolein) 9 (κ)”, the “Phase(s) Formed” value was “liquid water and L1”. For the same molecule, the “Phase(s) Formed” value (FIG. 5 point 502, compound 10, water 71, amphiphile (monoolein) 19 (κ)) was “L1 and lamellar”. Also, under “FIG. 5 point 503, compound 10, water 64, amphiphile (monoolein) 26 (κ)”, the “Phase(s) Formed” value was “L1 and lamellar”. For the same molecule, the “Phase(s) Formed” value (FIG. 5 point 504, compound 12, water 53, amphiphile (monoolein) 35 (κ)) is “L1 and lamellar”. The “Phase(s) Formed” value (FIG. 5 point 505, compound 10, water 45, amphiphile (monoolein) 45 (κ)) was “L1 and lamellar”. For the same molecule, the “Phase(s) Formed” value (FIG. 5 point 510, compound 20, water 40, amphiphile (monoolein) 40 (κ)) was “L1 and lamellar”. Where the note is “FIG. 6 point 601, compound 6, water 56, amphiphile (monoolein) 38 (κ)”, the “Phase(s) Formed” value is “cubic and lamellar”. Under “FIG. 6 point 602, compound 4, water 58, amphiphile (monoolein) 38 (κ)”, the “Phase(s) Formed” value is “cubic and lamellar”. The “Phase(s) Formed” value (FIG. 6 point 603, compound 2, water 59, amphiphile (monoolein) 39 (κ)) is “cubic and lamellar”. The “Phase(s) Formed” value (FIG. 6 point 604, compound 6, water 38, amphiphile (monoolein) 56 (κ)) was “cubic and lamellar”. Further, the “Phase(s) Formed” value (FIG. 6 point 605, compound 4, water 39, amphiphile (monoolein) 57 (κ)) is “cubic and lamellar”. For the same molecule, the “Phase(s) Formed” value (FIG. 6 point 606, compound 2, water 39, amphiphile (monoolein) 59 (κ)) was “cubic and lamellar”. For the setting “FIG. 6 point 607, compound 6, water 28, amphiphile (monoolein) 66 (κ)”, the “Phase(s) Formed” value is “cubic and lamellar”. Moreover, the “Phase(s) Formed” value (FIG. 6 point 608, compound 2, water 29, amphiphile (monoolein) 69 (κ)) was “cubic and lamellar”. Under “FIG. 6 point 609, compound 16, water 13, amphiphile (monoolein) 71 (κ)”, the “Phase(s) Formed” value was “lamellar”. In addition, the “Phase(s) Formed” value (FIG. 6 point 610, compound 10, water 14, amphiphile (monoolein) 76 (κ)) was “lamellar”. Besides, the “Phase(s) Formed” value (FIG. 6 point 611, compound 5, water 14, amphiphile (monoolein) 81 (κ)) is given as “lamellar”. In addition, the “Phase(s) Formed” value (FIG. 6 point 612, compound 5, water 12, amphiphile (monoolein) 83 (κ)) is “lamellar”. Besides, under setting [1], the Suitability as hydrotrope entry is “suitable to use as a hydrotrope”.

For `OCCCCO` [1,4-butanediol], the “Phase(s) Formed” value under setting [2] is “cubic and L1”. In addition, under setting [1], the Suitability as hydrotrope result is reported as “effective as hydrotropes”.

For the molecule `CC(C)O` [Example 2-propanol, 2-propanol], the “Phase(s) Formed” value under setting [2] was “does not form cubic phase; also recorded: Turbid solution and L1”. Also, the Suitability as hydrotrope result under setting [1] was “not preferred to use as a hydrotrope”.

Take `CCO` [ethanol]: the “Formation of cubic phase in equilibrium with liquid water” value is listed as “can be formed”. Also, the “Phase(s) Formed” value (FIG. 4 point 401, compound 20, water 48, amphiphile (monoolein) 32 (κ)) was “L1 and lamellar”. In addition, the “Phase(s) Formed” value (FIG. 4 point 404, compound 9, water 55, amphiphile (monoolein) 36 (κ)) was “cubic and lamellar”. For the same molecule, where the note is “FIG. 4 point 405, compound 6, water 56, amphiphile (monoolein) 38 (κ)”, the “Phase(s) Formed” value is “cubic and lamellar”. Besides, where the note is “FIG. 7 point 701, compound 11, water 88, amphiphile (monoolein) 1 (κ)”, the “Phase(s) Formed” value was “cubic & isotropic liquid”. For the same molecule, the “Phase(s) Formed” value (FIG. 7 point 702, compound 10, water 70, amphiphile (monoolein) 20 (κ)) is listed as “cubic & isotropic liquid”. Moreover, under “FIG. 7 point 703, compound 10, water 59, amphiphile (monoolein) 31 (κ)”, the “Phase(s) Formed” value was “cubic & isotropic liquid”. The “Phase(s) Formed” value (FIG. 7 point 704, compound 10, water 48, amphiphile (monoolein) 42 (κ)) is reported as “cubic & isotropic liquid”. In addition, for the setting “FIG. 7 point 706, compound 20, water 55, amphiphile (monoolein) 25 (κ)”, the “Phase(s) Formed” value was “L1 and lamellar”. Moreover, the “Phase(s) Formed” value (FIG. 7 point 707, compound 19, water 49, amphiphile (monoolein) 32 (κ)) is “L1 and lamellar”. In addition, the “Phase(s) Formed” value (FIG. 7 point 708, compound 20, water 42, amphiphile (monoolein) 39 (κ)) is “lamellar”. Moreover, for the setting “FIG. 7 point 709, compound 29, water 60, amphiphile (monoolein) 11 (κ)”, the “Phase(s) Formed” value is “L1 and lamellar”. Moreover, the “Phase(s) Formed” value (FIG. 7 point 710, compound 28, water 52, amphiphile (monoolein) 20 (κ)) was “L1 and lamellar”. For the same molecule, the “Phase(s) Formed” value (FIG. 7 point 711, compound 30, water 40, amphiphile (monoolein) 30 (κ)) is “lamellar”. Further, where the note is “FIG. 7 point 712, compound 30, water 29, amphiphile (monoolein) 41 (κ)”, the “Phase(s) Formed” value is “lamellar”. For the same molecule, the Suitability as hydrotrope entry under setting [1] was “preferred hydrotrope”. Further, the “Amount of compound at which it can be used as a hydrotrope” value (system with monoolein and water, % of the system) is “less than or equal to 10%”.

For `CCN(CC)CCOC(=O)c1ccc(N)cc1.Cl` [procaine hydrogen chloride, reference compound], under setting [2], the “Phase(s) Formed” value is “cubic and L1”. For the same molecule, the Suitability as hydrotrope result under setting [1] is listed as “effective as hydrotropes”.
